From US9023761B2, “Compositions and methods for blocking ethylene response in plants using 3-cyclopropyl-1-enyl-propanoic acid salt” (Yissum Research Development Company of the Hebrew …, priority 2007, dated 2015)
Read-outs that look alike come from different tables or passages of the source.

Experiments:
[1] = background statement; cited from earlier work
Banana fruit = test: Ethylene-induced ripening of green banana fruit (peel color, firmness); type: in vivo
Description: (§1) Each kind of the model plants was exposed to different concentrations of CPAS in an aqueous solution for 6-18 h as a pre-treatment following exposure for 24 h to different concentration of ethylene. In the case of banana and avocado fruits, the peel was brushed with different concentrations of CPAS aqueous solution, in the presence of commercially available Tween 20 surfactant (0.025%) as pre-ethylene treatment, and the delay in days elapsed until color breakdown (from green to yellow in banana—Table 1, FIG. 4; and from green to black in avocado—Table 1, FIG. 6) over air control was recorded as a criterion of the efficiency of the ethylene antagonist. In the case of peach fruit, the surfactant BAS 70 (generously supplied by BASF, Germany) was used. The results were recorded after incubation of 2-4 days in controlled conditions (Table 1, FIG. 11). When using cut flower models (FIGS. 1-3) CPAS aqueous solutions±surfactants was applied by loading either the cut flower or the isolated petals for 18 h in CPAS aqueous solutions prior to ethylene treatment. The number of days of the delay of senescence of the tested plant materials over water control was recorded, by following the visual wilting of the flowers. Tomato seedlings were sprayed with CPAS aqueous solutions in the presence of commercial available ‘Kinetic’ organo-silicone surfactant blend, kept for calibration in a growth chamber for 8-10 hr before spraying with CPAS solution or before loading CPSA by excised seedlings via their lower stem cut surface (Table 1, FIG. 10) in order to antagonize ethylene-induced epinasty of leaf petioles (Table 1, FIGS. 8-9). In the case of citrus leaf explants, abscission was tested at the laminar abscission zone. CPAS in aqueous solution, was either pre-treated by direct loading of the treatment solutions into the proximal side of the explant for 17 h, or by dipping the whole explant in the tested solutions for 30 to 60 sec in the presence of commercially available Tween 20 TM surfactant (0.025%. In all cases, a significant delaying action of ethylene-induced responses, was recorded in all the plant systems examined (Table 1, FIG. 7). In further examples, the concentrations of the CPAS aqueous solutions were used in the range of the results obtained in the above experiment.
Banana fruits were treated by brushing with aqueous solution of water soluble CPAS (200 μg mL^−1). After 18 hr all treated and untreated fruits were exposed to ethylene (300 μL^−1) to hasten ripening. All fruits were ventilated and held in air at 22° C. and 92% RH for assessment of their ripening value. Photos were taken on day 12 (untreated—FIG. 4A, treated FIG. 4B).
Additionally, banana fruits were treated by brushing with aqueous solution of CPAS ([…], and commercially available surfactant Tween 20 [0.025%]) and after 18 hr were exposed to ethylene (300 μL/L^−1) for 24 hr to hasten ripening. Fruits were kept at 24° C. and 92% RH. The fruits kept in air and treated by CPAS only served as comparative ones. Results were collected on day 7 (FIG. 5A).

Avocado fruit = test: Ethylene-induced ripening of 'Hass' avocado fruit (peel color, firmness, peduncle abscission); type: in vivo
Description: as §1
“Hass” avocado fruits with long peduncles were loaded with water soluble CPAS by dipping the peduncle cut surface for 30 hr in aqueous solution containing 100 μg/mL^−1 of CPAS. The untreated fruits with peduncles immersed in water. After the treatment with CPAS all fruits were exposed for 24 hr to the ethylene (250 μL L^−1). Afterwards the fruits were held at 24° C. and 92% RH for assessment their maturity parameters (peel color change and pulp firmness) and abscission of the peduncle. Photos were taken on day 5 after treatment (untreated—FIG. 6A, treated FIG. 6B).

Peach fruit = Peach fruit firmness / shelf life after spraying; type: in vivo
Description: as §1, with “When using cut flower models (FIGS. 1-3) CPAS aqueous solutions±surfactants was applied by loading either the cut flower or the isolated petals for 18 h in CPAS aqueous solutions prior to ethylene treatment.” left out, “Tomato seedlings were sprayed with CPAS aqueous solutions in the presence of commercial available ‘Kinetic’ organo-silicone surfactant blend, kept for calibration in a growth chamber for 8-10 hr before spraying with CPAS solution or before loading CPSA by excised seedlings via their lower stem cut surface (Table 1, FIG. 10) in order to antagonize ethylene-induced epinasty of leaf petioles (Table 1, FIGS. 8-9). In the case of citrus leaf explants, abscission was tested at the laminar abscission zone.” left out
Peach fruits were harvested and brought to the lab and immediately sprayed with different concentrations of CPAS solution (K-phosphate buffer, 20 mM, and 0.1% organo-silicone surfactant, namely BAS 90370S by BASF Germany), and kept at 22° C. and 90% humidity for up to 4 days. […] Firmness was recorded by a penetrometer (chatillon, using a disc of 8 mm diameter), after removing a 15 mm square peel strip in order to allow measuring the firmness directly on the flesh of the fruit.

Carnation flower = test: Carnation cut flower vase life; type: in vivo
Description: as §1
Carnation cut flowers treated by dipping cut surface for 18 hr in aqueous solution containing 8 μg mL^−1 of CPAS. Untreated flowers were held in water. After treatment all flowers are kept in water at 22° C. and 80% RH under continuous fluorescent light for assessment of their vase life. Photo was taken on day 14.

Carnation flower petal = test: Ethylene-induced senescence of isolated carnation petals; type: in vivo
Description: as §1
The following test was designed to further establish the ability of water soluble CPAS in aqueous solution to delay the ethylene-induced senescence of isolated carnation petals. The experiment was carried out in a growth chamber to ensure optimal environmental conditions (light, temperature and relative humidity). Carnation petals were loaded with CPAS by dipping their cut surface for 18 hr in aqueous solution containing 81 μg mL^−1 of CPAS. Untreated petals that were held in water. […]

Petunia flower = test: Petunia cut flower vase life after ethylene; type: in vivo
Description: as §1, with “Tomato seedlings were sprayed with CPAS aqueous solutions in the presence of commercial available ‘Kinetic’ organo-silicone surfactant blend, kept for calibration in a growth chamber for 8-10 hr before spraying with CPAS solution or before loading CPSA by excised seedlings via their lower stem cut surface (Table 1, FIG. 10) in order to antagonize ethylene-induced epinasty of leaf petioles (Table 1, FIGS. 8-9). In the case of citrus leaf explants, abscission was tested at the laminar abscission zone.” left out, “experiment. […]” for “experiment.”

Tomato leaf petiole = test: Ethylene-induced epinasty of tomato leaf petioles; type: in vivo; parameters: key to Protection (effect grade): + = weak effect; ++ = medium effect; +++ = strong effect; conditions: ethylene treatment +
Description: as §1
For the spraying experiment (FIG. 8) tomato plants from green house (3 weeks old) were brought for calibration in a growth chamber (8-10 hr, at 22° C. and 80% RH, under continuous fluorescent light). […]
In a second experiment the changes of the degree of the petiole from the branch, that expresses the epinastic response, was calculated (FIG. 9). […]

Citrus leaf explants = test: Abscission of citrus leaf explants; type: in vivo; conditions: for Minimum apparent concentration / Protection time (days over control): Citrus leaf abscission, ethylene treatment +
Description: as §1
The application of water soluble CPAS to citrus leaf explants was studied under air, antagonizing endogenous ethylene-induced abscission, comparing two methods of applications; either by dipping their petiole cut surfaces for 6 h in CPAS aqueous solution, or by dipping the whole explants for 30 sec. in the same treatment solution plus or minus a surfactant. In this experiment Tween-20 (0.025%) was chosen as surfactant, but any un-ionic surfactant may be chosen. The experiment indicates, as expected, that surfactants improve the penetration into plant tissues. However, if application is preferred via a cut surface like with cut flowers, there is no need to add a surfactant to the treatment solution (FIG. 7).
FIG. 7 represents a set of three figures, wherein explants are loaded with CPAS by dipping their petiole cut surfaces for 6 h in CPAS aqueous solution (A); dipped for 30 sec. in the same treatment solution (B); and treated as in B, but including Tween-20 [0.025%] (C).

[2] = Solubility and stability in water; type: physicochemical
[3] = Banana fruit, peel color, brushing, ethylene treatment +
[4] = Avocado fruit, peel color, loading, ethylene treatment +
[5] = avocado, 100 μg/mL loading via peduncle 30 hr, ethylene 250 μL L^−1 24 hr
[6] = Peach fruit, firmness, spraying, ethylene treatment −
[7] = Carnation flower, vase life, loading, ethylene treatment −
[8] = Carnation flower petal, senescence, loading, ethylene treatment +
[9] = Petunia flower, vase life, loading, ethylene treatment +

For `CC1=CC1` [1-MCP, 1-methylcyclopropene], the Solubility in water [1] is listed as “insolubility in water”.

For `O=C([O-])CCC1=CC1.[Na+]` [CPAS, cyclopropyl-1-enyl-propanoic acid sodium salt], the Minimum apparent concentration (Banana fruit; [3]) was 200 µg/mL, the “Protection time (days over control)” value (Banana fruit; [3]) was 6 days and the “Delaying the decrease in fruit firmness” value (Banana fruit; banana, 1000 μg mL^−1 brushing, ethylene 24 hr) was “ineffective”. For the same molecule, the “Delay of color break of the fruit” value (Banana fruit; banana, brushing, ethylene, effective at the higher concentrations) was “significantly delayed”, the “Delay of banana peel de-greening” value (Banana fruit; summary statement) was ≥ 12 days and the Minimum apparent concentration (Avocado fruit; [4]) was 100 µg/mL. For the same molecule, the “Protection time (days over control)” value (Avocado fruit; [4]) was 5 days, the Fruit softening (Avocado fruit; [5]) was “a little delaying effect” and the Peduncle abscission (Avocado fruit; [5]) was “significantly delayed”. For the same molecule, the Skin color development (Avocado fruit; [5]) was “significantly delayed”, the “Delay of color change of 'Hass' avocado fruit” value (Avocado fruit; summary statement) was ≥ 5 days and the Minimum apparent concentration (Peach fruit; [6]) was 10 µg/mL. The “Protection time (days over control)” value (Peach fruit; [6]) was 4 days, the “Shelf life of climacteric fruit (peach)” value (Peach fruit; spraying with surfactant, 22° C., up to 4 days) was “expand the shelf life” and the “Longevity of carnation cut flowers during vase life” value (Carnation flower; 8 μg mL^−1 dipping cut surface 18 hr, day 14, vs untreated) was “longevity increase”. The Minimum apparent concentration (Carnation flower; [7]) was 0.8 µg/mL, the “Protection time (days over control)” value (Carnation flower; [7]) was 10 days and the “Prolonging the vase-life of carnation cut flowers” value (Carnation flower; summary statement) was ≥ 14 days. For the same molecule, the “Ethylene antagonistic effect on petal senescence” value (Carnation flower petal; 81 μg mL^−1 loading 18 hr, ethylene 5 μl L^−1 24 hr, measured after 6 days) was “highly significant”, the Minimum apparent concentration (Carnation flower petal; [8]) was 81 µg/mL and the “Protection time (days over control)” value (Carnation flower petal; [8]) was 11 days. The Toxic symptoms (Carnation flower petal; carnation petals, 81 μg mL^−1 loading 18 hr) was “No toxic symptoms were observed”, the Minimum apparent concentration (Petunia flower; [9]) was 98 µg/mL and the “Protection time (days over control)” value (Petunia flower; [9]) was 17 days. For the same molecule, the “Prolonging the vase-life of petunia cut flowers” value (Petunia flower; summary statement) was ≥ 14 days, the Minimum apparent concentration (Tomato leaf petiole; loading) was 9 µg/mL and the “Protection (effect grade)” value (Tomato leaf petiole; loading) was “*+++”. The Minimum apparent concentration (Tomato leaf petiole; spraying) was 160 µg/mL, the “Protection (effect grade)” value (Tomato leaf petiole; spraying) was “*+++” and the Minimum apparent concentration (Citrus leaf explants; dipping) was 42 µg/mL. For the same molecule, the “Protection time (days over control)” value (Citrus leaf explants; dipping) was 2 days, the Minimum apparent concentration (Citrus leaf explants; loading) was 32 µg/mL and the “Protection time (days over control)” value (Citrus leaf explants; loading) was 7 days. For the same molecule, the “Delay of abscission of citrus leaf explants” value (Citrus leaf explants; summary statement) was ≥ 7 days, the Solubility in water [2] was “soluble” and the Stability in water [2] was “stable in water”.
